In patent US20220098196A1, “TRAPPING-FREE PARP INHIBITORS” (The Board of Regents of the University of Texas System, priority 2019, published 2022):
Where a SMILES comes first, the peptide text is derived from it. The star is where a group is joined. Cbz = O=C(OCc1ccccc1)*

Key:
[1] = biological target: T1, PARP1 (Homo sapiens, UniProt P09874); test: PARP1 degradation in HeLa cells (immunoblotting); type: cell-based; parameters: host or cells: HeLa; conditions: 24 hours; for PARP1 degradation: increasing concentrations; for effect on iRucaparib-induced PARP1 degradation: iRucaparib 5 μM plus MG132 (1 μM), Rucaparib (1 μM) or increasing pomalidomide
T1 sequence (P09874 whole entry): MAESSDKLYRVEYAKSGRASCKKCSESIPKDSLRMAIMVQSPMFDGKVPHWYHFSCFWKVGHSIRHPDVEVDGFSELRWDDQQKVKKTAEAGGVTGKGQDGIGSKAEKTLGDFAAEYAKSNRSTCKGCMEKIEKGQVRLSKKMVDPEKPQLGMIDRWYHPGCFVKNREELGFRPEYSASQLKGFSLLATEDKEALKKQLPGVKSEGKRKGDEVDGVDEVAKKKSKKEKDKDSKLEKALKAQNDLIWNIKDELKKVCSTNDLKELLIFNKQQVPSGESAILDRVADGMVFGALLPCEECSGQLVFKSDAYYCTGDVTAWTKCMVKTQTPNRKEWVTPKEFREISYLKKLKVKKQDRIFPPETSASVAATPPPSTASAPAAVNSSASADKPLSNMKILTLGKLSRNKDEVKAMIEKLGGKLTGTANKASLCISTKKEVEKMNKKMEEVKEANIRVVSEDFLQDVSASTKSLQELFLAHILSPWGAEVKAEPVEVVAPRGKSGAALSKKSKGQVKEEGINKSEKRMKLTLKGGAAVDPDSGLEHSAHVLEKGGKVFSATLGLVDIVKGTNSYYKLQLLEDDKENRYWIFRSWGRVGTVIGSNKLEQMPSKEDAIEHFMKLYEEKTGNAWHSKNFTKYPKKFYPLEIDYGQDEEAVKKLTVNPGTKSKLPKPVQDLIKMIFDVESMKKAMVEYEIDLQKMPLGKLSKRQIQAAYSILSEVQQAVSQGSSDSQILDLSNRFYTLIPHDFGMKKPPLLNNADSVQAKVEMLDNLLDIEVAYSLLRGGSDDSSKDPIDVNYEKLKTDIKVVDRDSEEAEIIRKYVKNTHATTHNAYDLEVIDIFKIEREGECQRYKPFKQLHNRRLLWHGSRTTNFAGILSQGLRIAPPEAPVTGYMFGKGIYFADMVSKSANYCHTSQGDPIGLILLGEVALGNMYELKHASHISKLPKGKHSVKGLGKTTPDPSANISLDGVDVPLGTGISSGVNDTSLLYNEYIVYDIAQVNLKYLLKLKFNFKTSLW
Protocol: (§1) Immunoblotting. Cells were washed once with cold PBS and lysed with the SDS lysis buffer (1% SDS, 10 mM HEPES pH 7.0, 2 mM MgCl2, 500 U universal nuclease). Protein concentrations were determined by the BCA assay kit (Thermo Fisher Scientific). A total of 20 μg proteins (40 μg proteins for PAR immunoblotting experiments) were loaded onto the SDS-PAGE gel and were then transferred to a nitrocellulose membrane. Nitrocellulose membranes were then blocked with the TBST buffer containing 5% milk (Bio-Rad). Membranes were incubated with the primary antibodies overnight at 4° C. and the secondary antibodies for 1 hour at room temperature (RT). The blots were developed using enhanced chemiluminescence and were exposed on autoradiograph films.

[2] = biological target: T1, PARP1; test: In Vitro PARP1 Activity Assay (PARP universal chemiluminescent assay kit); type: biochemical; conditions: in vitro
Protocol: In Vitro PARP1 Activity Assay. […] Briefly, the histone-coated strip wells were hydrated with the assay buffer for 30 min. The various compounds were added and were incubated with the PARP enzyme for 10 min. The reaction cocktail containing biotinylated NAD^+ was then added into the system, which was incubated for 1 hour to activate PARP1. After the reaction, the wells were washed twice with 0.1% Triton X-100/PBS and twice with PBS. The wells were incubated with Strep-HRP for another hour and were washed again as described above. PeroxyGlow reagents were mixed and added into the strip wells, and the biotin signal on coated histone was immediately measured with chemiluminescence on a Synergy microplate reader (Bio-Tek). The well without PARP1, and the well with PARP1 only was used as the negative (0%) and positive (100%) control, respectively.

[3] = biological target: T1, PARP1; test: TMT quantitative proteomics in BT-549 cells, PARP1; type: cell-based; conditions: iRucaparib 5 μM or VHL-Rucaparib 20 μM, 24 hours, 8,207 quantified proteins
Excerpt: Quantitative Mass Spectrometry.
Proteins were then extracted using methanol-chloroform precipitation.
The maximum intensity of each reporter ion was extracted.

[4] = biological target: ZFP91 (Homo sapiens, UniProt Q96JP5+Q96SW2); test: TMT quantitative proteomics in BT-549 cells, ZFP91; type: cell-based; parameters: host or cells: HeLa; BT-549; conditions: VHL-Rucaparib 20 μM, 24 hours
ZFP91, sequence (Q16531 2-1140): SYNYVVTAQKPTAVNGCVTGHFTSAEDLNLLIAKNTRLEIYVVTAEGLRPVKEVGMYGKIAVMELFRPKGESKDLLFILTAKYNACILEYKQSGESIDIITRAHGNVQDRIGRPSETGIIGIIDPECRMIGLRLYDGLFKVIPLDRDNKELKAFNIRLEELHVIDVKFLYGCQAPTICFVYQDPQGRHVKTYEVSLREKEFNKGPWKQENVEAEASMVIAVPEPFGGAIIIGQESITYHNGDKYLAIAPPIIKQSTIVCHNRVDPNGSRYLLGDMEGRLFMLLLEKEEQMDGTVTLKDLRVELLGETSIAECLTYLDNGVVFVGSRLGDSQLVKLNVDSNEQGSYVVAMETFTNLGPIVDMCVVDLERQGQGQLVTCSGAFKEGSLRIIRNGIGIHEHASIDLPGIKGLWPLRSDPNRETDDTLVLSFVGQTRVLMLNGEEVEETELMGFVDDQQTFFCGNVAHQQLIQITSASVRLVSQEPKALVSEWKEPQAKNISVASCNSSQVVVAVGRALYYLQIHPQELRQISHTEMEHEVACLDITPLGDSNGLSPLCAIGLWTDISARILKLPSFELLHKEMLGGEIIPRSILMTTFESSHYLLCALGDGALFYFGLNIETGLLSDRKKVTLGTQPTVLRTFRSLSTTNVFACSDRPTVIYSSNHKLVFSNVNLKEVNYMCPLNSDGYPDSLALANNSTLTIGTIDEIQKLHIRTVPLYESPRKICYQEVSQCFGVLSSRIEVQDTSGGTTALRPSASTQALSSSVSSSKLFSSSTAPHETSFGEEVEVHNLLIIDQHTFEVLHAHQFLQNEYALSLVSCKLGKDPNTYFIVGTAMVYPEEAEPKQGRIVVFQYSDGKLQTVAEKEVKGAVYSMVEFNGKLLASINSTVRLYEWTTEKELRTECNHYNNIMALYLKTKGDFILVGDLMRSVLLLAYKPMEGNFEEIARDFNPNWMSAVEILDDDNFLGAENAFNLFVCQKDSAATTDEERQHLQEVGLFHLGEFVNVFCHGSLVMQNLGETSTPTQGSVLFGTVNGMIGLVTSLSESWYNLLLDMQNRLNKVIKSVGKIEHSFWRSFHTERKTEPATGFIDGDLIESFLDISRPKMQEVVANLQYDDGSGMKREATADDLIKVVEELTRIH
ZFP91, sequence (Q96SW2 whole entry): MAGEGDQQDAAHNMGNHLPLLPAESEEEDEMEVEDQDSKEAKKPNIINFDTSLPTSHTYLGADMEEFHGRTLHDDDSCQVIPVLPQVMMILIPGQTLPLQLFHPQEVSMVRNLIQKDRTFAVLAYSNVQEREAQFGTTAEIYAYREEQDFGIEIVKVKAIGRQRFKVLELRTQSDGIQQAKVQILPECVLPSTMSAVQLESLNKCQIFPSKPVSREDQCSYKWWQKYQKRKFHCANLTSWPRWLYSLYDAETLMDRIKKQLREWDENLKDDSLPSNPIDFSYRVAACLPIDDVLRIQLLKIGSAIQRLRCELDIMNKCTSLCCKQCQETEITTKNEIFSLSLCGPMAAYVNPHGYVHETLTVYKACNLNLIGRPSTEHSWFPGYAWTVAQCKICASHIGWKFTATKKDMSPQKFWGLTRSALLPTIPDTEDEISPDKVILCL
ZFP91, sequence (Q96JP5 2-570): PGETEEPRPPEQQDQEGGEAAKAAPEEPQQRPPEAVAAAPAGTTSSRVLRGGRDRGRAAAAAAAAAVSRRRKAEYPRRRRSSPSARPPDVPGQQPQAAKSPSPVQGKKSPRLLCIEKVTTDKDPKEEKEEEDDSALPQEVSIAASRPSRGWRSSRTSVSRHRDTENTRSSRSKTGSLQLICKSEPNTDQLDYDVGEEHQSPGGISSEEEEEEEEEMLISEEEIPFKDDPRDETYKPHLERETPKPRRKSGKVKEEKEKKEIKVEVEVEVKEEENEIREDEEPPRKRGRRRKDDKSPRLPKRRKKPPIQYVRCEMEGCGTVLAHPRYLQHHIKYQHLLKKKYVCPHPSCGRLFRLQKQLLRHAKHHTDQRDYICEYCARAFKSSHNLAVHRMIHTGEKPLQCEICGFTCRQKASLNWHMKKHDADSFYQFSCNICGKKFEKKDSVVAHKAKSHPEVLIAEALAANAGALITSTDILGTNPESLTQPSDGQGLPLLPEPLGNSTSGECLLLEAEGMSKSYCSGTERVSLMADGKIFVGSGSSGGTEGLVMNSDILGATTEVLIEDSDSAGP
Protocol: Quantitative Mass Spectrometry. […] Two biological replicate samples were prepared for each treatment condition. Cells were washed with cold PBS and lysed using the SDS lysis buffer. Protein concentrations were determined by the BCA assay (Thermo Fisher Scientific). For each sample, 500 μg of protein was used for the subsequent TMT experiments^34.
For the TMT experiments, proteins were reduced with 2 mM DTT for 10 min and alkylated with 50 mM iodoacetamide for 30 min in dark. Proteins were then extracted using methanol-chloroform precipitation. Protein pellets were dissolved in 400 μL 8 M Urea buffer (8 M urea, 50 mM Tris-HCl, 10 mM EDTA, pH 7.5) and were digested by Lys-C (Wako, at a 1:100 enzyme/protein ratio) for 2 hours at RT. The urea concentration was then reduced to 2 M using freshly made 100 mM ammonium bicarbonate solution. […]
Samples were desalted and fractioned by bRPLC (basic pH reversed phase HPLC) on a ZORBAX 300 Extend-C18 column (Narrow Bore RR 2.1 mm×100 mm, 3.5 μm particle size, 300 Å pore size). […] Samples were then analyzed on an Orbitrap Elite mass spectrometer (Thermo Fisher Scientific) using a top 15 HCD (higher-energy collisional dissociation) method.
The maximum intensity of each reporter ion was extracted. For each reporter ion channel, the observed signal-to-noise ratio was summed across all quantified proteins and was normalized.

[5] = biological target: T1, PARP1; test: PARP1 degradation in VHL-proficient (BT-549, PC-3) and VHL-deficient (786-O) cells (immunoblotting); type: cell-based; parameters: host or cells: MDA-MB-468; BT-549; PC-3; 786-O; conditions: 24 hours
Protocol: as §1

[6] = biological target: T1, PARP1; test: PARP1 trapping in HeLa cells (subcellular fractionation, chromatin-bound fraction); type: cell-based; parameters: host or cells: HeLa; conditions: 5 μM for all compounds, MMS 0.01%
Protocol: Subcellular Proteins Extraction. […] The cytosolic proteins were isolated by incubating the cells with the CEB buffer for 10 min at 4° C., and centrifuged at 500 g for 5 min. The membrane proteins were isolated by incubating the pellet from previous step with the MEB buffer for 10 min at 4° C., and centrifuged at 3000 g for 5 min. The soluble nuclear proteins were isolated by incubating the pellet from previous step with the NEB buffer for 30 min at 4° C., and centrifuged at 5000 g for 5 min. The chromatin bound proteins were isolated by incubating the pellet from previous step with the NEB buffer supplemented with nuclease for 15 min at RT and centrifuged at 16000 g for 5 min. Protein concentrations were determined by the BCA assay kit.

[7] = Phase III, patients taking pomalidomide and dexamethasone vs. dexamethasone alone; p=0.0002; cited from earlier work

CN(CCCCc1cn(CCOCCOCCNc2cccc3c2C(=O)N(C2CCC(=O)NC2=O)C3=O)nn1)Cc1ccc(-c2[nH]c3cc(F)cc4c3c2CCNC4=O)cc1 (centres unmarked) [PEG2, Rucaparib-Triazole-PEG2-Pomalidomide]
PARP1 degradation [1]: not able to degrade PARP1
biochemical (catalytic) inhibition of PARP1 [2]: maintained catalytic inhibitory activity against PARP1

Cc1ncsc1-c1ccc(CNC(=O)[C@@H]2C[C@@H](O)CN2C(=O)[C@@H](NC(=O)CCOCCOCCOCCOCCn2cc(CCCCN(C)Cc3ccc(-c4[nH]c5cc(F)cc6c5c4CCNC6=O)cc3)nn2)C(C)(C)C)cc1 [VHL-Rucaparib, Rucaparib-Triazole-PEG4-VHL-Ligand]
PARP1 downregulation [3]: one of the most significantly downregulated proteins
ZFP91 abundance change [4]: did not show any changes
PARP1 degradation ([5]; BT549 cells, iRucaparib 5 μM or VHL-Rucaparib 20 μM): robust PARP1 degradation
PARP1 level ([5]; BT-549 cells (VHL-proficient)): successfully downregulated
PARP1 level ([5]; PC-3 cells (VHL-proficient), 10 μM): successfully downregulated

C[C@]1(c2nc3c(C(N)=O)cccc3[nH]2)CCCN1 [Veliparib]
potency in PARP1 trapping (rank order) [6]: BMN673>Niraparib>Olaparib>Rucaparib>Veliparib

CN(CCCCc1cn(CCOCCOCCOCCOCCNc2cccc3c2C(=O)N(C2CCC(=O)NC2=O)C3=O)nn1)Cc1ccc(-c2[nH]c3cc(F)cc4c3c2CCNC4=O)cc1 (centres unmarked) [PEG4 PROTAC, Rucaparib-Triazole-PEG4-Pomalidomide]
PARP1 degradation [1]: able to degrade PARP1 as efficiently as iRucaparib

CN(CCCCc1cn(CCOCCNc2cccc3c2C(=O)N(C2CCC(=O)NC2=O)C3=O)nn1)Cc1ccc(-c2[nH]c3cc(F)cc4c3c2CCNC4=O)cc1 (centres unmarked) [PEG1, Rucaparib-Triazole-PEG1-Pomalidomide]
PARP1 degradation [1]: not able to degrade PARP1
biochemical (catalytic) inhibition of PARP1 [2]: maintained catalytic inhibitory activity against PARP1

CC(C)C[C@@H](C=O)NC(=O)[C@H](CC(C)C)NC(=O)[C@H](CC(C)C)NC(=O)OCc1ccccc1 [MG132, reference compound] (Cbz-Leu-Leu-Leu-aldehyde)
effect on iRucaparib-induced PARP1 degradation [1]: completely blocked
effect on VHL-Rucaparib-induced PARP1 degradation ([5]; PC-3 cells, VHL-Rucaparib 10 μM plus MG-132 1 μM): could be rescued by MG-132 treatment

Nc1cccc2c1C(=O)N(C1CCC(=O)NC1=O)C2=O (centres unmarked) [pomalidomide, reference compound]
overall survival (median) [7]: 11.9 months
effect on PARP1 protein levels ([1]; 5 μM): had no effect on PARP1 protein levels
effect on iRucaparib-induced PARP1 degradation [1]: block PARP1 degradation

NC(=O)c1cccc2cn(-c3ccc([C@@H]4CCCNC4)cc3)nc12 [Niraparib]
potency in PARP1 trapping (rank order) [6]: BMN673>Niraparib>Olaparib>Rucaparib>Veliparib
